ChEMBL document CHEMBL2146376, “'Inverted' analogs of the antibiotic gramicidin S with an improved biological profile” (Bioorg Med Chem, 2012)
≈ marks a conversion by molar mass, not a printed value. Each block holds one compound with its values, some of them ahead of it.

What was measured:
[1] = system: Staphylococcus aureus; assay: Antibacterial activity against PVL-deficient and non-typable methicillin-resistant Staphylococcus aureus N229-T034 after 24 hrs by broth dilution method; format: functional; conditions: N229-T034, 24 h
[2] = system: Bacillus cereus; assay: Antibacterial activity against Bacillus cereus ATCC 11778 after 24 hrs by broth dilution method; format: functional; conditions: ATCC 11778, 24 h
[3] = system: Enterococcus faecalis; assay: Antibacterial activity against Enterococcus faecalis ATCC 29212 after 24 hrs by broth dilution method; format: functional; conditions: ATCC 29212, 24 h
[4] = system: Staphylococcus aureus; assay: Antibacterial activity against PVL-positive and non-typable methicillin-resistant Staphylococcus aureus 1110301981H-T034 after 24 hrs by broth dilution method; format: functional
[5] = system: Staphylococcus epidermidis; assay: Antibacterial activity against Staphylococcus epidermidis ATCC 12228 after 24 hrs by broth dilution method; format: functional; conditions: ATCC 12228, 24 h
[6] = Toxicity in human erythrocytes assessed as concentration required to achieve 100% hemolysis after 4 hrs; format: cell-based; conditions: erythrocyte
[7] = system: Staphylococcus aureus; assay: Antibacterial activity against Staphylococcus aureus ATCC 29213 after 24 hrs by broth dilution method; format: functional; conditions: ATCC 29213, 24 h
[8] = system: Staphylococcus aureus; assay: Antibacterial activity against PVL-deficient and non-typable methicillin-resistant Staphylococcus aureus N133-T034 after 24 hrs by broth dilution method; format: functional; conditions: N133-T034, 24 h
[9] = system: Pseudomonas aeruginosa; assay: Antibacterial activity against Pseudomonas aeruginosa ATCC 27853 after 24 hrs by broth dilution method; format: functional; conditions: ATCC 27853, 24 h
[10] = system: Staphylococcus aureus; assay: Antibacterial activity against PVL-positive and non-typable methicillin-resistant Staphylococcus aureus USA300-1110301146 after 24 hrs by broth dilution method; format: functional; conditions: USA300-1110301146, 24 h
[11] = system: Escherichia coli; assay: Antibacterial activity against Escherichia coli ATCC 25922 after 24 hrs by broth dilution method; format: functional; conditions: ATCC 25922, 24 h

SMILES: CCCCCCCCCC[C@@H]1NC(=O)[C@H](CCCN)NC(=O)[C@@H]2CCCN2C(=O)[C@@H](Cc2ccccc2)NC(=O)[C@H](CCCN)NC(=O)[C@H](CCCCCCCCCC)NC(=O)[C@H](CCCN)NC(=O)[C@@H]2CCCN2C(=O)[C@@H](Cc2ccccc2)NC(=O)[C@H](CCCN)NC1=O
MIC [1]: 64 µg/mL (≈ 47.8 µM)
MIC [2]: 8 µg/mL (≈ 5.97 µM)
MIC [3]: 32 µg/mL (≈ 23.9 µM)
MIC [4]: 64 µg/mL (≈ 47.8 µM)
MIC [5]: 4 µg/mL (≈ 2.99 µM)
Activity [6]: 62.5 µM
MIC [7]: 64 µg/mL (≈ 47.8 µM)
MIC [8]: 64 µg/mL (≈ 47.8 µM)
MIC [9]: 64 µg/mL (≈ 47.8 µM)
MIC [10]: 64 µg/mL (≈ 47.8 µM)
MIC [11]: 64 µg/mL (≈ 47.8 µM)

MIC [2]: > 64 µg/mL
MIC [3]: > 64 µg/mL
MIC [5]: 64 µg/mL (≈ 54.6 µM)
MIC [7]: > 64 µg/mL
MIC [9]: > 64 µg/mL
MIC [11]: > 64 µg/mL
SMILES: CC(C)C[C@@H]1NC(=O)[C@H](CCCN)NC(=O)[C@@H]2CCCN2C(=O)[C@@H](Cc2ccccc2)NC(=O)[C@H](CCCN)NC(=O)[C@H](CC(C)C)NC(=O)[C@H](CCCN)NC(=O)[C@@H]2CCCN2C(=O)[C@@H](Cc2ccccc2)NC(=O)[C@H](CCCN)NC1=O
Activity [6]: > 500 µM

SMILES: CCCCCCCCCC[C@@H]1NC(=O)[C@H](CCCN)NC(=O)[C@@H]2CCCN2C(=O)[C@@H](Cc2ccccc2)NC(=O)[C@H](CCCN)NC(=O)[C@H](C(C)C)NC(=O)[C@H](CCCN)NC(=O)[C@@H]2CCCN2C(=O)[C@@H](Cc2ccccc2)NC(=O)[C@H](CCCN)NC1=O
MIC [1]: 8 µg/mL (≈ 6.44 µM)
MIC [2]: 4 µg/mL (≈ 3.22 µM)
MIC [3]: 16 µg/mL (≈ 12.9 µM)
MIC [4]: 16 µg/mL (≈ 12.9 µM)
MIC [5]: 8 µg/mL (≈ 6.44 µM)
Activity [6]: 500 µM
MIC [7]: 16 µg/mL (≈ 12.9 µM)
MIC [8]: 8 µg/mL (≈ 6.44 µM)
MIC [9]: 16 µg/mL (≈ 12.9 µM)
MIC [10]: 8 µg/mL (≈ 6.44 µM)
MIC [11]: 16 µg/mL (≈ 12.9 µM)

SMILES: NCCC[C@@H]1NC(=O)[C@H](CC23CC4CC(CC(C4)C2)C3)NC(=O)[C@H](CCCN)NC(=O)[C@@H]2CCCN2C(=O)[C@@H](Cc2ccccc2)NC(=O)[C@H](CCCN)NC(=O)[C@H](CC23CC4CC(CC(C4)C2)C3)NC(=O)[C@H](CCCN)NC(=O)[C@@H]2CCCN2C(=O)[C@@H](Cc2ccccc2)NC1=O
MIC [1]: 8 µg/mL (≈ 5.9 µM)
MIC [2]: 8 µg/mL (≈ 5.9 µM)
MIC [3]: 8 µg/mL (≈ 5.9 µM)
MIC [4]: 8 µg/mL (≈ 5.9 µM)
MIC [5]: 4 µg/mL (≈ 2.95 µM)
Activity [6]: 62.5 µM
MIC [7]: 8 µg/mL (≈ 5.9 µM)
MIC [8]: 8 µg/mL (≈ 5.9 µM)
MIC [9]: 16 µg/mL (≈ 11.8 µM)
MIC [10]: 8 µg/mL (≈ 5.9 µM)
MIC [11]: 8 µg/mL (≈ 5.9 µM)

SMILES: CC(C)[C@@H]1NC(=O)[C@H](CCCN)NC(=O)[C@@H]2CCCN2C(=O)[C@@H](Cc2ccccc2)NC(=O)[C@H](CCCN)NC(=O)[C@H](C(C)C)NC(=O)[C@H](CCCN)NC(=O)[C@@H]2CCCN2C(=O)[C@@H](Cc2ccccc2)NC(=O)[C@H](CCCN)NC1=O
MIC [1]: > 64 µg/mL
MIC [2]: > 64 µg/mL
MIC [3]: > 64 µg/mL
MIC [4]: > 64 µg/mL
MIC [5]: 64 µg/mL (≈ 56 µM)
Activity [6]: > 500 µM
MIC [7]: > 64 µg/mL
MIC [8]: > 64 µg/mL
MIC [9]: > 64 µg/mL
MIC [10]: > 64 µg/mL
MIC [11]: > 64 µg/mL

SMILES: CC(C)(C)[C@@H]1NC(=O)[C@H](CCCN)NC(=O)[C@@H]2CCCN2C(=O)[C@@H](Cc2ccccc2)NC(=O)[C@H](CCCN)NC(=O)[C@H](C(C)(C)C)NC(=O)[C@H](CCCN)NC(=O)[C@@H]2CCCN2C(=O)[C@@H](Cc2ccccc2)NC(=O)[C@H](CCCN)NC1=O
MIC [1]: > 64 µg/mL
MIC [2]: > 64 µg/mL
MIC [3]: > 64 µg/mL
MIC [4]: > 64 µg/mL
MIC [5]: 64 µg/mL (≈ 54.6 µM)
Activity [6]: > 500 µM
MIC [7]: > 64 µg/mL
MIC [8]: > 64 µg/mL
MIC [9]: > 64 µg/mL
MIC [10]: > 64 µg/mL
MIC [11]: > 64 µg/mL

SMILES: CC(C)C[C@@H]1NC(=O)[C@H](CCCN)NC(=O)[C@@H]2CCCN2C(=O)[C@@H](Cc2ccccc2)NC(=O)[C@H](CCCN)NC(=O)[C@H](CC(C)(C)C)NC(=O)[C@H](CCCN)NC(=O)[C@@H]2CCCN2C(=O)[C@@H](Cc2ccccc2)NC(=O)[C@H](CCCN)NC1=O
MIC [1]: > 64 µg/mL
MIC [2]: > 64 µg/mL
MIC [3]: > 64 µg/mL
MIC [4]: > 64 µg/mL
MIC [5]: 16 µg/mL (≈ 13.5 µM)
Activity [6]: > 500 µM
MIC [7]: > 64 µg/mL
MIC [8]: > 64 µg/mL
MIC [9]: > 64 µg/mL
MIC [10]: > 64 µg/mL
MIC [11]: > 64 µg/mL

SMILES: CC(C)[C@@H]1NC(=O)[C@H](CCCN)NC(=O)[C@@H]2CCCN2C(=O)[C@@H](Cc2ccccc2)NC(=O)[C@H](CCCN)NC(=O)[C@H](C23CC4CC(CC(C4)C2)C3)NC(=O)[C@H](CCCN)NC(=O)[C@@H]2CCCN2C(=O)[C@@H](Cc2ccccc2)NC(=O)[C@H](CCCN)NC1=O
MIC [1]: > 64 µg/mL
MIC [2]: 64 µg/mL (≈ 51.8 µM)
MIC [3]: > 64 µg/mL
MIC [4]: > 64 µg/mL
MIC [5]: 16 µg/mL (≈ 12.9 µM)
Activity [6]: > 500 µM
MIC [7]: 64 µg/mL (≈ 51.8 µM)
MIC [8]: > 64 µg/mL
MIC [9]: 64 µg/mL (≈ 51.8 µM)
MIC [10]: > 64 µg/mL
MIC [11]: > 64 µg/mL
